Legend:
Test in all cases: drug sensitivity score (DSS) from 5-point dose-response viability curve (DSS (area-under-curve based score)); higher = more sensitive (stronger growth inhibition or killing); extreme values may be limits of the assay
Conditions in all cases: exposure time: 72 h; concentration range: 5 concentrations over 10,000-fold range
CAOV3 = system: CAOV3
In short: (§1)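 For the drug sensitivity score, obtained per cell line and drug in Breeze software, larger values mean greater sensitivity. No response corresponds to a score of zero. Ovarian cancer and normal ovarian cells were seeded at 1,500 per well into 384-well plates already holding acoustically dispensed drugs (Echo 550, DMSO or water, five concentrations over a 10,000-fold range) and incubated 3 days at 37°C, 5% CO2. CellTiter-Glo luminescence on a PHERAstar FS gave the viability readout.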

Kuramochi = system: Kuramochi
In short: as §1

OVCAR8 = system: OVCAR8
In short: as §1

OVCAR4 = system: OVCAR4
In short: as §1

OV90 = system: OV90
In short: as §1

Ovsaho = system: Ovsaho
In short: as §1

JHOS2 = system: JHOS2
In short: as §1

HOSE1C = system: HOSE1C
In short: as §1

OVCAR5 = system: OVCAR5
In short: as §1

COV318 = system: COV318
In short: as §1

HOSE2C = system: HOSE2C
In short: as §1

COV362 = system: COV362
In short: as §1

Structure (SMILES) | drug sensitivity score (CAOV3) | drug sensitivity score (Kuramochi) | drug sensitivity score (OVCAR8) | drug sensitivity score (OVCAR4) | drug sensitivity score (OV90) | drug sensitivity score (Ovsaho) | drug sensitivity score (JHOS2) | drug sensitivity score (HOSE1C) | drug sensitivity score (OVCAR5) | drug sensitivity score (COV318) | drug sensitivity score (HOSE2C) | drug sensitivity score (COV362)
O=C(c1ccc(F)c(F)c1Nc1ccc(I)cc1F)N1CC(O)([C@@H]2CCCCN2)C1 [Cobimetinib] | 8.5 | 4.6 | 2.4 | 1.4 | 25.7 | 8.9 | 4 | 0.9 | 8.8 | 0 | 3 | 3.5
COc1c(OCCCN2CCOCC2)ccc2c1N=C(NC(=O)c1cnc(N)nc1)N1CCN=C21 [Copanlisib] | 9.9 | 8 | 5.7 | 5.3 | 3.5 | 6.3 | 2.6 | 4.8 | 10.4 | 3.8 | 6.6 | 2.5
CC1(COc2ccc3c(c2)ncn3-c2ccc3cccc(N4CCC(N)CC4)c3n2)COC1 [Crenolanib] | 10 | 4 | 6.9 | 2.9 | 6 | 4.4 | 7.9 | 4.8 | 4.9 | 5.4 | 2.8 | 6.8
C[C@@H](Oc1cc(-c2cnn(C3CCNCC3)c2)cnc1N)c1c(Cl)ccc(F)c1Cl [Crizotinib] | 0 | 0 | 0 | 0 | 0 | 0 | 0 | 0 | 0 | 0 | 0.1 | 0
CC(C)(C)c1nc(-c2cccc(NS(=O)(=O)c3c(F)cccc3F)c2F)c(-c2ccnc(N)n2)s1 [Dabrafenib] | 0 | 0 | 0 | 0 | 17.9 | 0 | 1.5 | 0 | 0 | 0 | 0 | 0
COc1cc2ncnc(Nc3ccc(F)c(Cl)c3)c2cc1NC(=O)/C=C/CN1CCCCC1 [Dacomitinib] | 8 | 2.4 | 2.1 | 1.3 | 0.1 | 2.6 | 0.8 | 1.1 | 5 | 0.2 | 0 | 0.2
Cc1c2oc3c(C)ccc(C(=O)N[C@@H]4C(=O)N[C@H](C(C)C)C(=O)N5CCC[C@H]5C(=O)N(C)CC(=O)N(C)[C@@H](C(C)C)C(=O)O[C@@H]4C)c3nc-2c(C(=O)N[C@@H]2C(=O)N[C@H](C(C)C)C(=O)N3CCC[C@H]3C(=O)N(C)CC(=O)N(C)[C@@H](C(C)C)C(=O)O[C@@H]2C)c(N)c1=O [Dactinomycin] | 23.4 | 27.9 | 24.3 | 17.5 | 23.1 | 26.5 | 26.5 | 34.6 | 20.9 | 9 | 30.5 | 13.9
Cn1c(=O)n(-c2ccc(C(C)(C)C#N)cc2)c2c3cc(-c4cnc5ccccc5c4)ccc3ncc21 [Dactolisib] | 11 | 14.4 | 14.4 | 15.3 | 16.7 | 15.8 | 13.7 | 20.5 | 15 | 13.4 | 13.9 | 3.7
CO[C@@H](C(=O)N1Cc2[nH]nc(NC(=O)c3ccc(N4CCN(C)CC4)cc3)c2C1)c1ccccc1 [Danusertib] | 23.5 | 11.1 | 8.7 | 8.7 | 4.9 | 14.7 | 3.1 | 7.4 | 7.2 | 4.3 | 12.5 | 5.6
CCN(CC)CCN(Cc1ccc(-c2ccc(C(F)(F)F)cc2)cc1)C(=O)Cn1c(SCc2ccc(F)cc2)nc(=O)c2c1CCC2 [Darapladib] | 0 | 1 | 0 | 0 | 0.6 | 2 | 0.3 | 0 | 0.9 | 0.2 | 0 | 2.4
Cc1nc(Nc2ncc(C(=O)Nc3c(C)cccc3Cl)s2)cc(N2CCN(CCO)CC2)n1 [Dasatinib] | 9.9 | 18.5 | 9.1 | 4.6 | 5.5 | 12.1 | 3.5 | 4.6 | 8 | 0.2 | 6 | 8.2
COc1cccc2c1C(=O)c1c(O)c3c(c(O)c1C2=O)C[C@@](O)(C(C)=O)C[C@@H]3O[C@H]1C[C@H](N)[C@H](O)[C@H](C)O1 [Daunorubicin] | 9.4 | 4.2 | 10.8 | 3.2 | 5.3 | 7.9 | 6.2 | 11.5 | 8.2 | 1.7 | 10.9 | 3.6
CC[C@@](C)(Nc1ccnc(-c2c[nH]c3ncccc23)n1)C(=O)NCC(F)(F)F [Decernotinib] | 0 | 0 | 0 | 0 | 0 | 0 | 0 | 0 | 0 | 0 | 0.6 | 0
Nc1ncn([C@H]2C[C@H](O)[C@@H](CO)O2)c(=O)n1 [Decitabine] | 2.3 | 0 | 2.8 | 2.8 | 0 | 0 | 0 | 0 | 2.4 | 0 | 0.5 | 0
CC(=O)N(O)CCCCCNC(=O)CCC(=O)N(O)CCCCCNC(=O)CCC(=O)N(O)CCCCCN [Deferoxamine] | 2.8 | 3.7 | 2.7 | 3.4 | 4.5 | 3.8 | 0.7 | 1.8 | 2.6 | 2.2 | 0 | 0.5

Reference: the supplement of paper PMC11616607
